The record followed here is ChEMBL document CHEMBL1157928, “Discovery and structural optimization of pyrazole derivatives as novel inhibitors of Cdc25B” (Bioorg Med Chem Lett, 2010).

This test deals with T1, M-phase inducer phosphatase 2 (Homo sapiens, UniProt P30305).
T1 sequence (P30305 whole entry): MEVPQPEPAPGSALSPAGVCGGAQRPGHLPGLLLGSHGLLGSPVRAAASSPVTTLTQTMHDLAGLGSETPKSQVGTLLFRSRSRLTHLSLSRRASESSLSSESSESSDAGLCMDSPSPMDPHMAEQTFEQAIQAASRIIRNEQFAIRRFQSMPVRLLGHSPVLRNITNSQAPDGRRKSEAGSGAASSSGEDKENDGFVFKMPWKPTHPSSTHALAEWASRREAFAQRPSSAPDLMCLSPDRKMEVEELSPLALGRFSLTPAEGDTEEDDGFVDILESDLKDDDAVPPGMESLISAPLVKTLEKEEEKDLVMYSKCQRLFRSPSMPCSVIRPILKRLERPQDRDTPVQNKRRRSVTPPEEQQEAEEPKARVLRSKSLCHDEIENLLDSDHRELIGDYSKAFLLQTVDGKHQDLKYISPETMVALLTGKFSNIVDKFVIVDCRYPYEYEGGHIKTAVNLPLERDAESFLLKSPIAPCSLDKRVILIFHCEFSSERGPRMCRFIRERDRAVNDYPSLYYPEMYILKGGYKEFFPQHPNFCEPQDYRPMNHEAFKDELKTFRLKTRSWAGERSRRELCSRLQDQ
Briefly: Inhibition of CDC25B. The note with it: read-out: IC50.
In the case of `CCCCCCCCCCCCCCCCCC(=O)c1n[nH]c2c1C(=O)N(c1ccc([N+](=O)[O-])cc1)C2=O`, the IC50 amounted to 400 nM.

As for `CCCCCCCCCC(=O)c1n[nH]c2c1C(=O)N(c1ccc([N+](=O)[O-])cc1)C2=O`, the IC50 amounted to 1390 nM.

`CCOC(=O)c1n[nH]c2c1C(=O)N(c1ccc(Cl)cc1)C2=O`: the IC50 came out at 37400 nM.

In the case of `CCCCCCCCCCCCCCCCCC(=O)c1n[nH]c2c1C(=O)N(Cc1ccc(F)cc1)C2=O`, the 50% inhibitory concentration (IC50) stood at 2080 nM.

For the compound `CCCCCCCCCCCCCCCCCC(=O)c1n[nH]c2c1C(=O)N(c1ccsc1C(=O)OC)C2=O`, the IC50 amounted to 340 nM.

On to `CCCCCCCCCCCCCCCCCC(=O)c1n[nH]c2c1C(=O)N(C1CCCCC1)C2=O`, for which the IC50 was 2920 nM.

In the case of `CCCCCCCCCCCCCCCCCC(=O)c1n[nH]c2c1C(=O)N(c1cccc(OC)c1)C2=O`, the IC50 was determined as 520 nM.

For `CCCCCCCCCCCCCCCCCC(=O)c1n[nH]c2c1C(=O)N(c1ccc(Br)cc1)C2=O`, the IC50 was 960 nM.

Regarding `CCCCCCCCCCCCCCCCCC(=O)c1n[nH]c2c1C(=O)N(c1ccc(F)c(Cl)c1)C2=O`, the IC50 was 1150 nM.

Take `CCCCCCCCCCCCCCCCCC(=O)c1n[nH]c2c1C(=O)N(c1cccc3ccccc13)C2=O`: the IC50 stood at 310 nM.

Take `CCCCCCCCCCCCCCCCCC(=O)c1n[nH]c2c1C(=O)N(c1cccc(Br)c1)C2=O`: the IC50 amounted to 1010 nM.

As to `CCCCCCCCCCCCCCCCCC(=O)c1n[nH]c2c1C(=O)N(c1ccc(F)cc1)C2=O`, the IC50 amounted to 540 nM.

For the compound `CCCCCCCCCCCCCCCCCC(=O)c1n[nH]c2c1C(=O)N(c1ccccc1C(=O)OC)C2=O`, the IC50 stood at 410 nM.

Turning to `CCCCCCCCCCCCCCCCCC(=O)c1n[nH]c2c1C(=O)N(c1ccccc1F)C2=O`, the IC50 is 450 nM.

Consider `CCCCCCCCCCCCCCCCCC(=O)c1n[nH]c2c1C(=O)N(c1ccccc1Br)C2=O`, for which the IC50 was 250 nM.

As to `CCCCCCCCCCCCCC(=O)c1n[nH]c2c1C(=O)N(c1ccc([N+](=O)[O-])cc1)C2=O`, the IC50 is 500 nM.

Turning to `CCCCCCCCCCCCCCCCCC(=O)c1n[nH]c2c1C(=O)N(c1cccc(Cl)c1)C2=O`, the IC50 stood at 240 nM.

With `CCCCCCCCCCCCCCCCCC(=O)c1n[nH]c2c1C(=O)N(c1ccccc1C)C2=O`, the IC50 is 2130 nM.

As for `CCCCCCCCCCCCCCCCCC(=O)c1n[nH]c2c1C(=O)N(c1cccc(F)c1)C2=O`, the IC50 amounted to 1470 nM.

Regarding `CCCCCCCCCCCCCCCCCC(=O)c1n[nH]c2c1C(=O)N(c1ccccc1C(F)(F)F)C2=O`, the IC50 came out at 320 nM.

For the compound `CCCCCCCCCCCCCCCCCC(=O)c1n[nH]c2c1C(=O)N(c1ccc(C)cc1)C2=O`, the half-inhibitory concentration (IC50) turned out to be 4330 nM.

As to `CCCCCCCCCCCCCCCCCC(=O)c1n[nH]c2c1C(=O)N(c1cccc(C)c1)C2=O`, the IC50 came to 2600 nM.

For the compound `CCCCCCCCCCCCCCCCCC(=O)c1n[nH]c2c1C(=O)N(c1ccc(Cl)cc1)C2=O`, the IC50 is 170 nM.
